Laboratory results from PubChem BioAssay (NCI).
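Grown in 96-well plates, cells were treated for 48 hours with each compound at five concentrations. Insufficient inhibition: endpoint recorded as highest concentration tested. GI50: concentration for 50% inhibition of growth. At the TGI there is no net growth.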

Columns and labels:
Test in all cases: inhibition of tumour cell growth, NCI panel, 48 h
[1] = test system: 786-0 renal
[2] = test system: HL-60(TB) leukemia
[3] = test system: MALME-3M melanoma
[4] = test system: MOLT-4 leukemia
[5] = test system: NCI-H460 lung
[6] = test system: SF-295 CNS
[7] = test system: SK-MEL-2 melanoma
[8] = test system: SNB-75 CNS
[9] = test system: MCF7 breast
[10] = test system: SR leukemia

Compound	TGI [1] [µM]	TGI [2] [µM]	TGI [3] [µM]	TGI [4] [µM]	TGI [5] [µM]	TGI [6] [µM]	TGI [7] [µM]	TGI [8] [µM]	GI50 [1] [µM]	GI50 [2] [µM]	GI50 [3] [µM]	GI50 [9] [µM]	TGI [9] [µM]	GI50 [4] [µM]	GI50 [5] [µM]	GI50 [6] [µM]	GI50 [7] [µM]	GI50 [8] [µM]	TGI [10] [µM]
N#Cc1c(C(N)=O)ncn1Cc1ccccc1	> 100	> 100	> 100	> 100	> 100	> 100	> 100	> 100	–	–	–	–	–	–	–	–	–	–	–
COc1ccc2c(c1)C(=O)c1c-2c(N2CCN(C(=O)CN(C)C)CC2)nc2ccccc12	33.7	52.4	58.1	24.8	20.6	41	39	27.7	14.4	20	23	12.3	27.6	5.23	6.01	13.7	18.4	11.8	–
COc1ccc(C2c3cc4c(cc3OC(O)(CO)C2C(=O)O)OCO4)c(OC)c1OC (centres undefined) (tested in a mixture with another compound)	> 100	> 100	> 100	> 100	> 100	> 100	> 100	> 100	–	–	–	–	–	–	–	–	–	–	–
C/C=C/CP(=O)(c1ccccc1)c1ccccc1	> 100	> 100	> 100	> 100	> 100	> 100	> 100	> 100	–	–	–	–	–	–	–	–	–	–	> 100
COc1ccc(/C(Cl)=C(\C=O)c2cc(OC)c(OC)c(OC)c2)cc1OC	> 100	58.6	> 92.6	> 100	> 100	> 100	> 90.5	> 28.1	–	–	–	–	–	–	–	–	–	–	> 100
COc1cc(C(=O)O)ccc1NC(=O)[C@@H]1N[C@@H](CC(C)(C)C)[C@](C#N)(c2ccc(Cl)cc2F)[C@H]1c1cccc(Cl)c1F	18.4	6.71	8.27	2.07	2.27	8.64	10	20.9	3.45	2.28	0.0448	0.0328	4.12	0.083	0.077	2.78	2.96	3.35	–
CC(=O)Oc1cc2c(=O)oc3c(OC(C)=O)c(OC(C)=O)c(OC(C)=O)c4c(=O)oc(c1OC(C)=O)c2c34	> 100	> 100	> 100	> 100	> 100	52.9	> 100	> 100	–	–	–	–	–	–	–	–	–	–	> 100
Cn1cc(C(=O)/C(Cl)=C(\Cl)C(=O)O)c2ccccc21	> 100	> 100	> 100	> 100	> 100	> 100	> 100	> 100	–	–	–	–	–	–	–	–	–	–	–
O=C1CC(c2ccccc2)NCN1 (centres undefined)	> 100	> 100	> 100	> 100	–	> 100	> 100	> 100	–	–	–	–	–	–	–	–	–	–	> 100
NC(=S)N/N=C1\C(=O)N(c2cccc([N+](=O)[O-])c2)C(=O)C1C(=O)Nc1cccc([N+](=O)[O-])c1 (centres undefined)	> 100	> 100	> 100	> 100	–	> 100	> 100	> 100	–	–	–	–	–	–	–	–	–	–	–
C/C(=C\c1ccn(-c2ccc(N)cc2C(F)(F)F)n1)[C@@H]1C[C@@H]2O[C@]2(C)CCC[C@H](C)[C@H](O)[C@@H](C)C(=O)C(C)(C)[C@@H](O)CC(=O)O1	> 11.1	1.07	> 11.1	> 11.1	> 11.1	2.19	0.902	–	0.569	0.296	0.736	0.0859	> 11.1	0.533	0.302	0.314	0.303	–	–
O=C(CC1(O)C(=O)Nc2ccccc21)c1ccc(O)cc1O (centres undefined)	> 100	> 100	> 100	> 100	> 100	> 100	> 100	> 100	–	–	–	–	–	–	–	–	–	–	–
COC1=CC(C)C2C[C@H]3O[C@H](O)C[C@H]4C(C)C(=O)C(O)C([C@@]2(C)C1=O)[C@@]34C (some centres undefined)	> 100	–	> 100	> 100	> 100	> 100	–	> 100	–	–	–	–	–	–	–	–	–	–	–
COc1ccc(C(=O)O)c2c(=O)c3ccccc3[nH]c12	> 100	> 100	> 100	> 100	> 100	> 100	> 100	–	–	–	–	–	–	–	–	–	–	–	> 100
N#Cc1c(N)nc(N2CCOCC2)c(C#N)c1-c1cccc(O)c1	> 100	–	–	> 100	> 100	> 100	> 100	70.6	> 100	–	–	47	> 100	> 100	93.2	> 100	> 100	17.2	–
